According to ChEMBL document CHEMBL1136262, “4-Alkoxy-2,6-diaminopyrimidine derivatives: inhibitors of cyclin dependent kinases 1 and 2” (Bioorg Med Chem Lett, 2003):

How the values were obtained:
[1] = biological target: Cyclin-dependent kinase 2/cyclin A (Homo sapiens, UniProt P24941); assay: Inhibition of human Cyclin-dependent kinase 2 cyclin A3 at 12.5 uM ATP; type: protein-complex assay
[2] = biological target: T1, Cyclin-dependent kinase 2/cyclin A (Homo sapiens) (UniProt P24941+P20248+P78396); assay: Inhibition of human Cyclin-dependent kinase 2 cyclin A3 at 10 uM; type: protein-complex assay
[3] = biological target: T2, Cyclin-dependent kinase 1/cyclin B1 (Homo sapiens, UniProt P06493+P14635); assay: Inhibition of Cyclin dependent kinase 1-cyclin B1 from starfish oocytes at 10 uM; conditions: Asteroidea, Oocyte
[4] = biological target: T1, Cyclin-dependent kinase 2/cyclin A (Homo sapiens); assay: Inhibition of human Cyclin-dependent kinase 2 cyclin A3 at 100 uM; type: protein-complex assay
[5] = biological target: T2, Cyclin-dependent kinase 1/cyclin B1; assay: Inhibition of Cyclin dependent kinase 1-cyclin B1 from starfish oocytes at 100 uM; conditions: Asteroidea, Oocyte

T2 sequence (P06493 whole entry, looked up): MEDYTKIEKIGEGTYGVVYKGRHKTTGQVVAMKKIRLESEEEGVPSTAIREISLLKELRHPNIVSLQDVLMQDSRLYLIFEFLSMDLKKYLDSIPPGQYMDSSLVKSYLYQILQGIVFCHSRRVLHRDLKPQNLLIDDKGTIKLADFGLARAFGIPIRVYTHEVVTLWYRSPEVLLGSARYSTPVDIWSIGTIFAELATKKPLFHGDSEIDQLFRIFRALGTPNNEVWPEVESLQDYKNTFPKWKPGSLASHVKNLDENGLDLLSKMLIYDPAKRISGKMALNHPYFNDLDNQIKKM
T2 sequence (P14635 whole entry, looked up): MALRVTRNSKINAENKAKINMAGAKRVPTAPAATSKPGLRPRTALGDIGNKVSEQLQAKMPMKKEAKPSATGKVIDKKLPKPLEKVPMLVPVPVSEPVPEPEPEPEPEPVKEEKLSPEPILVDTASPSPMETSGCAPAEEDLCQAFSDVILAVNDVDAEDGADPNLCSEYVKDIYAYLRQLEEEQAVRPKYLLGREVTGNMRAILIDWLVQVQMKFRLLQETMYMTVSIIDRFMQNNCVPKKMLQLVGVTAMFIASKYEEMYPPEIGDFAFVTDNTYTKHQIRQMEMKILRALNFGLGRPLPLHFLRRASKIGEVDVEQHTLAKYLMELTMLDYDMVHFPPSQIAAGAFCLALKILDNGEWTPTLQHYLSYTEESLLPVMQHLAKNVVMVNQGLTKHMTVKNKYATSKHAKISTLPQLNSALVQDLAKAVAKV

Compound | IC50 [1] [µM] | inhibition [2] [%] | inhibition [3] [%] | inhibition [4] [%] | inhibition [5] [%]
Nc1nc(N)c(N=O)c(OC[C@@H]2NCCC2=O)n1 | 65 | – | – | – | –
Nc1cc(OCC2CCCCC2)nc(N)n1 | – | 7 | 4 | – | –
Nc1nc(N)c(/C=N/O)c(OCC2CCCCC2)n1 | – | – | – | 37 | 25
CCCCCCCOc1nc(N)nc(N)c1N=O | – | 22 | 17 | – | –
Nc1nc(N)c(C(O)c2ccccc2)c(OCC2CCCCC2)n1 (configuration not stated) | – | – | – | 12 | 4
Nc1nc(N)c(C(=O)c2ccccc2)c(OCC2CCCCC2)n1 | – | 6 | 21 | – | –
Nc1nc(N)c(C=O)c(OCC2CCCCC2)n1 | – | 43 | 35 | – | –
Nc1nc(N)c(N=O)c(OCC2CC=CCC2)n1 (configuration not stated) | 5 | – | – | – | –
Nc1nc(N)c(/C=N/OCc2ccccc2)c(OCC2CCCCC2)n1 | – | 3 | 5 | – | –
Nc1nc(Nc2ccccc2)c(N=O)c(OCC2CCCCC2)n1 | – | – | – | 47 | 23
Nc1nc(N)c(N=O)c(OCc2ccccc2)n1 | 27 | – | – | – | –
Nc1nc(NC(=O)OCc2ccccc2)c(N=O)c(OCC2CCCCC2)n1 | – | 11 | 14 | – | –
NC(=O)N/N=C/c1c(N)nc(N)nc1OCC1CCCCC1 | – | – | – | 44 | 61
COC(=O)Nc1nc(N)nc(OCC2CCCCC2)c1N=O | – | – | – | 6 | 8
COc1ccc(Nc2nc(N)nc(OCC3CCCCC3)c2N=O)cc1 | – | – | – | 8 | 7
CO/N=C/c1c(N)nc(N)nc1OCC1CCCCC1 | – | 13 | 13 | – | –
Nc1nc(N)c(N)c(OCC2CCCCC2)n1 | – | – | – | 52 | 40
Nc1cc(OCC2CC=CCC2)nc(N)n1 (configuration not stated) | – | 8 | 16 | – | –
CC(=O)Nc1nc(N)nc(OCC2CCCCC2)c1N=O | – | – | – | 28 | 36
CCCCCOc1nc(N)nc(N)c1N=O | – | 36 | 35 | – | –
